ChEMBL document CHEMBL1201862, “PubChem BioAssay data set” (2004)
One block for each compound: values may come before it. Calls of active or inactive are those of the source.

Assays:
[1] = fluconazole-exposed Candida albicans growth modulators – fluorescence, retest, confirmation (AID 2467); assay type: functional, cell-based
[2] = NIH-3T3 fibroblast cytotoxicity, dose response, cytotoxicity control, cell-based, fluorescence, Alamar Blue, secondary assay (AID 2327); assay type: functional;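 further: NIH-3T3 mouse fibroblasts cultured with fluconazole at 8 µg/mL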
[3] = NIH3T3 cell viability loss – ATP luminescence, mouse fibroblasts, counter-screen, dose response (AID 2010); assay type: functional, cell-based;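 further: cells exposed to compound for about 90 hours before reading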
[4] = decrease of insulin promoter-GFP reporter – imaging, high-content screening, mouse beta cells (AID 1628); assay type: functional; conditions: MIN6
[5] = MIN6 cell viability loss – mouse insulinoma, cytotoxicity control, dose response (AID 2122); assay type: functional;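 further: confirmatory high-throughput counterscreen run to flag cytotoxic compounds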
[6] = Trypanosoma cruzi growth suppression in host cells – NIH3T3 host cells, beta-gal luminescence, confirmation (AID 2044); assay type: functional, cell-based;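 further: intracellular parasites grown in NIH/3T3 mouse fibroblasts as host cells; luminescent beta-galactosidase reporter signal from transgenic T. cruzi replicating inside host cells; inhibitors lower the luminescence signal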
Escherichia coli [7] = experiment: microbe, parasite or virus in culture
Escherichia coli [8] = experiment: microbe, parasite or virus in culture; remark: listed apart in the source
[9] = target: Peroxisome proliferator-activated receptor gamma/Nuclear receptor coactivator 2 (Homo sapiens, UniProt P37231); experiment: (§1) TR-FRET dose response biochemical High Throughput Screening assay for agonists of the steroid receptor coactivator 2 (SRC-2) recruitment by the peroxisome proliferator-activated receptor gamma (PPAR gamma): non-selective agonists. [Related pubchem assays: 1297, 1032 ]; assay type: functional
[10] = target: Peroxisome proliferator-activated receptor gamma/Nuclear receptor coactivator 3 (Homo sapiens, UniProt P37231); experiment: as §1, with “3 (SRC-3)” for “2 (SRC-2)”, “1301 (Confirmation screen.), 1048 (Primary screen.)]” for “1297, 1032 ]”; assay type: functional
[11] = target: Peroxisome proliferator-activated receptor gamma/Nuclear receptor coactivator 1 (Homo sapiens, UniProt P37231); experiment: as §1, with “1 (SRC-1)” for “2 (SRC-2)”, “assays (depositor defined):AID1300, AID1808, AID504735, AID631]” for “assays: 1297, 1032 ]”; assay type: protein assay
[12] = viability of uninfected HEp-2 cells – cell-based, HTS, cytotoxicity control for RSV inhibitor project, dose response (AID 2410); assay type: functional; conditions: human respiratory syncytial virus
[13] = target: T1, RNA-binding protein pos-1 (Caenorhabditis elegans, UniProt G5EF15); experiment: disruptors of C. elegans POS-1 RNA interaction – biochemical, fluorescence polarization, dose response (AID 1964);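 further: purified POS-1 fused to maltose binding protein made in E. coli; potency of compounds blocking POS-1 binding to fluorescent RNA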
T1 sequence (G5EF15 whole entry): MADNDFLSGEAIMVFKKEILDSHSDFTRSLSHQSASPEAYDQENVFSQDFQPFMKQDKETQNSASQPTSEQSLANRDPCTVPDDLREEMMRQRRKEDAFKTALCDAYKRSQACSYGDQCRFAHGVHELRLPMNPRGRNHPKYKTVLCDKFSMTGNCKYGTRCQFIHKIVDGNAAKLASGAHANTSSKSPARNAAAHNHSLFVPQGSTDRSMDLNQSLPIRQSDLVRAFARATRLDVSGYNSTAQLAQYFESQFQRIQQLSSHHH

[14] = target: T2, Zinc finger protein mex-5 (Caenorhabditis elegans, UniProt Q9XUB2); experiment: potency of MEX-5 RNA-binding blockers – biochemical, C. elegans, fluorescence polarization, dose response (AID 1960)
T2 sequence (Q9XUB2 whole entry): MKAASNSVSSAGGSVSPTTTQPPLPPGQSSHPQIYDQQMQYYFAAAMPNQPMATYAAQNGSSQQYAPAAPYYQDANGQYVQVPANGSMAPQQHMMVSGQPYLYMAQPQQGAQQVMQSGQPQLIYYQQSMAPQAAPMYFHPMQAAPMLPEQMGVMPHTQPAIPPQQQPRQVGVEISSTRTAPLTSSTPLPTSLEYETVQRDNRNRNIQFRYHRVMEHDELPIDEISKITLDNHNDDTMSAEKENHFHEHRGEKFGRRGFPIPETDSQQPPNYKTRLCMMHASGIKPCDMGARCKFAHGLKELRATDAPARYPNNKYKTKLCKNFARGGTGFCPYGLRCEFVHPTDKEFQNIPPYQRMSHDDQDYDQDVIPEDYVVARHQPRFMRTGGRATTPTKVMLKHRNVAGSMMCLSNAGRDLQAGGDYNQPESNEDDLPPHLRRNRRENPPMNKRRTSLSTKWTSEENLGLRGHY

[15] = target: FAD-linked sulfhydryl oxidase ALR (Homo sapiens, UniProt P55789); experiment: ALR-catalysed DTT oxidation blockers – biochemical, H2O2 detection, luminescence, cherry-pick, dose response (AID 493248)
[16] = target: T3, Alkaline phosphatase, tissue-nonspecific isozyme (Homo sapiens, UniProt P05186); experiment: TNAP enzyme inhibition by screening hits, dose response, selectivity assay for mouse IAP inhibitor project, biochemical, human TNAP, uHTS hits (AID 488906); assay type: functional
T3 sequence (P05186 whole entry): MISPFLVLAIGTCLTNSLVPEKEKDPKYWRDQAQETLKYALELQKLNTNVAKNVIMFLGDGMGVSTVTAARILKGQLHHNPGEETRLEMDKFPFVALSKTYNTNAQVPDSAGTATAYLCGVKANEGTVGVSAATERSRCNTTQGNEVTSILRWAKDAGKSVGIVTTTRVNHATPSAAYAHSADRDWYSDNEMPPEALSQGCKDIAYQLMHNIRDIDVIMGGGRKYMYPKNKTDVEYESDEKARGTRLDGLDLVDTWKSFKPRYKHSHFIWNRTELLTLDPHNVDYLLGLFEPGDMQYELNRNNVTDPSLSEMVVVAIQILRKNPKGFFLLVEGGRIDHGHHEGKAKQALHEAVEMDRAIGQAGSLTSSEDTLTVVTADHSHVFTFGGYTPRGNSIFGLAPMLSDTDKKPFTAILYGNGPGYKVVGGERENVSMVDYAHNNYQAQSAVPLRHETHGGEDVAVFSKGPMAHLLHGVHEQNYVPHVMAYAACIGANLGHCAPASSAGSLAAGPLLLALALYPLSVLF

Aminopeptidase N = target: T4, Aminopeptidase N (Plasmodium falciparum FcB1/Columbia, UniProt O96935); experiment: malaria alanyl aminopeptidase activity blockers – biochemical, fluorogenic H-Leu-NHMec substrate, 1536-well (AID 1445); design: species or system Plasmodium falciparum 3D7, 3D7
T4 sequence (O96935 whole entry): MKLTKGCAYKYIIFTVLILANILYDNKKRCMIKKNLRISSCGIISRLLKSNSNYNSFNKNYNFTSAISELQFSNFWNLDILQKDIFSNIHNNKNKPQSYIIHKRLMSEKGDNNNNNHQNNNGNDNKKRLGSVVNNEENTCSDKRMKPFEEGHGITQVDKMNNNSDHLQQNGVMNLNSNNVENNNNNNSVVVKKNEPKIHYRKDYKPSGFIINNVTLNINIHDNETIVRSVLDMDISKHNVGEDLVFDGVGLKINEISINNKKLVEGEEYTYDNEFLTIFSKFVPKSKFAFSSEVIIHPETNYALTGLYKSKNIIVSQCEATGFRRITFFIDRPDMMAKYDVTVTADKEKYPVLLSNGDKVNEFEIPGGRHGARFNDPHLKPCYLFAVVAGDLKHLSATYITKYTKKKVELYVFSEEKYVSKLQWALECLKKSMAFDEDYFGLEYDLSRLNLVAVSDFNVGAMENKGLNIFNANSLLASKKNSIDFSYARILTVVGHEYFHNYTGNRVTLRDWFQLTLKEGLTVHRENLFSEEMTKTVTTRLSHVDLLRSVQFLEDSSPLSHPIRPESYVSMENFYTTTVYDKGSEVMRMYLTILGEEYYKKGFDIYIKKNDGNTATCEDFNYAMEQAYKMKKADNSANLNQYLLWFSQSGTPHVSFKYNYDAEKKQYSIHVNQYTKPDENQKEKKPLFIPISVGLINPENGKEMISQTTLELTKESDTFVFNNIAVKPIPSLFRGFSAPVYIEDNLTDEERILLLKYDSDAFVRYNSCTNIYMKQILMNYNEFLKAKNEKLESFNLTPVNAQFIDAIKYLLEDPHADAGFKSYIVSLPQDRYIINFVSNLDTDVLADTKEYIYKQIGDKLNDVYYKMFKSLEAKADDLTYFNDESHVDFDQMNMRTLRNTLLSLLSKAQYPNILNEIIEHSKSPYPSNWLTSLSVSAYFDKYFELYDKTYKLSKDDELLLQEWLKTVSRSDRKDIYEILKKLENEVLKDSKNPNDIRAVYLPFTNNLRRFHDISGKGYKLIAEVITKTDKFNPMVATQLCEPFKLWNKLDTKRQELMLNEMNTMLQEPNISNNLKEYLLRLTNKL

[17] = target: Intestinal-type alkaline phosphatase (Homo sapiens, UniProt P09923); experiment: inhibition of human intestinal alkaline phosphatase – biochemical, dose response (AID 488876); assay type: functional
[18] = target: Intestinal-type alkaline phosphatase (Mus musculus, UniProt P24822); experiment: PubChem AID 488785; assay type: functional
Chain of Intestinal-type alkaline phosphatase (Mus musculus, UniProt P24822) (P24822 whole entry): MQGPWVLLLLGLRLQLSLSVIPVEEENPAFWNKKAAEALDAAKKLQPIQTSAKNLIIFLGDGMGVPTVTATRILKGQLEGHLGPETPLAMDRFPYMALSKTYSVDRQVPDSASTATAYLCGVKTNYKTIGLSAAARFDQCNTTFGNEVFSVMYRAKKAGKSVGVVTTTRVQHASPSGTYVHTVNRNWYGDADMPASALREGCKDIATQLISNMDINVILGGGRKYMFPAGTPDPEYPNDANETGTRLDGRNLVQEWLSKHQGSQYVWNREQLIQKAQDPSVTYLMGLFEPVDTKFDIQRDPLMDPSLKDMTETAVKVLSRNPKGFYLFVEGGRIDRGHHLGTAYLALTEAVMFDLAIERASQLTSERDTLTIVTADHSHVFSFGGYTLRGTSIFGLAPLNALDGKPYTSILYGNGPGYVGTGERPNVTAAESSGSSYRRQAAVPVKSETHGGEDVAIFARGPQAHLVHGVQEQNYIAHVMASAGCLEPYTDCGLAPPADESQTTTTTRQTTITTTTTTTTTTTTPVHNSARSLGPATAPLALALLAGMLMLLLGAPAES

Chain of Intestinal-type alkaline phosphatase (Homo sapiens, UniProt P09923) (P09923 whole entry): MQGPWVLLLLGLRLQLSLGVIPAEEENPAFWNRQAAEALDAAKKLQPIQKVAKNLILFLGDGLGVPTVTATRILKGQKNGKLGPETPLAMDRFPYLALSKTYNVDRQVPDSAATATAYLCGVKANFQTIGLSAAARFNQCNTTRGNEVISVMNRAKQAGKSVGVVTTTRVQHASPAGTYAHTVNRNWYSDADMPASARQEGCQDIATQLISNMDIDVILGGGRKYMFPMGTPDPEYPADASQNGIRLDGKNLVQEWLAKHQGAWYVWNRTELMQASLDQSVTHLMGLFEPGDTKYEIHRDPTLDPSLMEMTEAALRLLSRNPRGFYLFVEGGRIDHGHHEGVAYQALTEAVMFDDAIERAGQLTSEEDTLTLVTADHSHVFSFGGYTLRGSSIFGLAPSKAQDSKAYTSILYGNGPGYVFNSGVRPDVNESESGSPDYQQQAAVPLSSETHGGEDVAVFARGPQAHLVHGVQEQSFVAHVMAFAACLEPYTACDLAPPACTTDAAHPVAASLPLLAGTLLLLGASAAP
Chain of Peroxisome proliferator-activated receptor gamma/Nuclear receptor coactivator 1 (P37231 whole entry): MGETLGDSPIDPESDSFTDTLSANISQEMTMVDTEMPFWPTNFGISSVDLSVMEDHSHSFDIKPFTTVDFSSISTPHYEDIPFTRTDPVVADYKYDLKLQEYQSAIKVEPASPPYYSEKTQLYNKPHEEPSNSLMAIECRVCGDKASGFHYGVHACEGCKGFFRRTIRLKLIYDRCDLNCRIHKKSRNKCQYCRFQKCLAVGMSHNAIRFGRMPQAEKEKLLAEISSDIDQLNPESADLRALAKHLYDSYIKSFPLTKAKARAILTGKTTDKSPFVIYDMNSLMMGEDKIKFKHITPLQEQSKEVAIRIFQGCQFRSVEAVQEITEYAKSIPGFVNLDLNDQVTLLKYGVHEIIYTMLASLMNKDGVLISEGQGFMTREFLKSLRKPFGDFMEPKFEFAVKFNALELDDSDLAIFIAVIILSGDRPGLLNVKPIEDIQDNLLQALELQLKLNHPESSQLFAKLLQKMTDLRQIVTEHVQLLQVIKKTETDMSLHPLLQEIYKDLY
Chain of Peroxisome proliferator-activated receptor gamma/Nuclear receptor coactivator 1 (Q15788 whole entry, further chain): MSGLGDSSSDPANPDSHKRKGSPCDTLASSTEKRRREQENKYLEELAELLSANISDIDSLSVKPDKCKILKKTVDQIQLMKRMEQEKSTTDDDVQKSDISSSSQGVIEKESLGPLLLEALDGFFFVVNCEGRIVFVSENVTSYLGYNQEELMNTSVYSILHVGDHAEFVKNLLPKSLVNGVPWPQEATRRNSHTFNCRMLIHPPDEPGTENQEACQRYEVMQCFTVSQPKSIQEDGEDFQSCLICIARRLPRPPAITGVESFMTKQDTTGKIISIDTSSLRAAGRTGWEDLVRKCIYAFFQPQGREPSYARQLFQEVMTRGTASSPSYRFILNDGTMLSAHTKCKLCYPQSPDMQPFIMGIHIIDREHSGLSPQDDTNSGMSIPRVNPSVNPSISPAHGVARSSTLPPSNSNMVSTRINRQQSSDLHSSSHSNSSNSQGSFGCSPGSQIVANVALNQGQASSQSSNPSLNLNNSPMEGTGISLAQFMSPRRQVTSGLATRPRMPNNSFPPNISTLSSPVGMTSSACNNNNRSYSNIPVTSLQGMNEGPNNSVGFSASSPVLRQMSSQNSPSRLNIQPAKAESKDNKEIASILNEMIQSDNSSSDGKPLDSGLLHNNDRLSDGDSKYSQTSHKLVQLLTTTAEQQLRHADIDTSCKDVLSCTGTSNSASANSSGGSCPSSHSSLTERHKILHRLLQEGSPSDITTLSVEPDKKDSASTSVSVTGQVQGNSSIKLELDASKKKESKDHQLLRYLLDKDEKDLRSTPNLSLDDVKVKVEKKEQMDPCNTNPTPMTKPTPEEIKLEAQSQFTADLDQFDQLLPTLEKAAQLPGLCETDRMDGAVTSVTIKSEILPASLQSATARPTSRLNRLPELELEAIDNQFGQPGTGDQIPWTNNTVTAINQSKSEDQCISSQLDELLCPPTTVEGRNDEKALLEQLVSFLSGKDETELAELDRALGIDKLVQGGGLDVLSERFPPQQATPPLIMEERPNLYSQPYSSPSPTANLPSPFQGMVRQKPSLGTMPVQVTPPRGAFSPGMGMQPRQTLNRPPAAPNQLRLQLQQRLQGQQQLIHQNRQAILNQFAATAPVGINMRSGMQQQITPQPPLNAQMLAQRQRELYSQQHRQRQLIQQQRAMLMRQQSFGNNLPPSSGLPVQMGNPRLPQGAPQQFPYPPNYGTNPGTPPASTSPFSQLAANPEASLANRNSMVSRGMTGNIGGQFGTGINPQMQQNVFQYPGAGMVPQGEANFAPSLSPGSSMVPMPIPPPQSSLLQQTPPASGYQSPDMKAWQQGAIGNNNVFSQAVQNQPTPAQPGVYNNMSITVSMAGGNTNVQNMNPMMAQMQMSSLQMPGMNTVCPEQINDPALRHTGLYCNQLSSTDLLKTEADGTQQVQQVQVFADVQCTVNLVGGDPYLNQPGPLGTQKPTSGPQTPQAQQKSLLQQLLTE
Chain of Peroxisome proliferator-activated receptor gamma/Nuclear receptor coactivator 3 (P37231 whole entry): as the sequence (P37231 whole entry) above
Chain of Peroxisome proliferator-activated receptor gamma/Nuclear receptor coactivator 3 (Q9Y6Q9 whole entry, further chain): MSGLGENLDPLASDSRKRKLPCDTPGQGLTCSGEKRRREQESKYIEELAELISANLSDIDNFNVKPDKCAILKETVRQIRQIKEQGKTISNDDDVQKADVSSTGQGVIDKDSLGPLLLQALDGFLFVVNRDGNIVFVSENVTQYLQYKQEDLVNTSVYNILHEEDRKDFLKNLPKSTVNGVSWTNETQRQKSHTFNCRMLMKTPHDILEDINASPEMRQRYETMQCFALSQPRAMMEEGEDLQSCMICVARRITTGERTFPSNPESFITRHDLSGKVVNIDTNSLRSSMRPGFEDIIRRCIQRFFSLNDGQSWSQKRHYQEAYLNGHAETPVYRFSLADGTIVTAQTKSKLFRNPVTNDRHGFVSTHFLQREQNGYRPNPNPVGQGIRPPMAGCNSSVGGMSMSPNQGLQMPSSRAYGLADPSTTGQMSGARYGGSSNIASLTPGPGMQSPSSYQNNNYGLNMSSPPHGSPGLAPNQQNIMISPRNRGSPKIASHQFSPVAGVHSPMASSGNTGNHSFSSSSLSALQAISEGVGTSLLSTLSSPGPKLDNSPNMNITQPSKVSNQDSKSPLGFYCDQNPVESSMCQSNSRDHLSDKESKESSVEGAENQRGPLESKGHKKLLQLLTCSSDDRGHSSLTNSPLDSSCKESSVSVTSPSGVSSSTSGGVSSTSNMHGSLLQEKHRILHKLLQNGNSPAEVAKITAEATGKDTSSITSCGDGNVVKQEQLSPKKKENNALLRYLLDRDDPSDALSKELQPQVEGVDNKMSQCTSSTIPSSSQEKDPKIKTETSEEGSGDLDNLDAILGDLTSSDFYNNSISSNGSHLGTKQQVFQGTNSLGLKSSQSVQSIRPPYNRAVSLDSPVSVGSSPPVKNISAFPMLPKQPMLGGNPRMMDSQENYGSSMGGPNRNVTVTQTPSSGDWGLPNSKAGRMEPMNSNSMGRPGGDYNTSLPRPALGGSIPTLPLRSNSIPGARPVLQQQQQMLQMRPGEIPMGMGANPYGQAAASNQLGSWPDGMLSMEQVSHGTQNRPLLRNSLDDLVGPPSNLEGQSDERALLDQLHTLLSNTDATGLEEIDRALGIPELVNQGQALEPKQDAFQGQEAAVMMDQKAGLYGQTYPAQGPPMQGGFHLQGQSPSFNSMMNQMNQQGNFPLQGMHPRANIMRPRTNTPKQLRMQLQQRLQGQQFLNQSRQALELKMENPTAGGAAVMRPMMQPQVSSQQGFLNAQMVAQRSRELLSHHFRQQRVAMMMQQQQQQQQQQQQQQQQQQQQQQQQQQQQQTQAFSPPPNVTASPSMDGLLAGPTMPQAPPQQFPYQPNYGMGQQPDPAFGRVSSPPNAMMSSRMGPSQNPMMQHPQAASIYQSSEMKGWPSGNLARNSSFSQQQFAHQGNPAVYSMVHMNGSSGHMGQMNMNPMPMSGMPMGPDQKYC

SMILES: CCN(CC)c1nc(-c2ccccn2)nc(-c2ccccc2)c1C#N
- EC50 [1]: > 38 µM (not active)
- EC50 [2]: > 160 µM (inconclusive)
- EC50 [3]: 6.71 µM (active)
- IC50 [4]: 2.71 µM (active)
- IC50 [5]: 3.09 µM (active)
- EC50 [6]: 1.57 µM (active)

SMILES: c1ccc(Nc2cc(-c3ccccc3)nc3ncnn23)cc1
- AC50 (Escherichia coli [7]): 18.4 µM (active)
- AC50 (Escherichia coli [8]): 72 µM (active)

SMILES: O=C(CS(=O)(=O)c1ccc(Cl)c(Cl)c1)Nc1ccccc1Cl
- AC50 (Escherichia coli [7]): 47.2 µM (active)
- AC50 (Escherichia coli [8]): 300 µM (active)

SMILES: Cc1ccc(S(=O)(=O)Nc2ccc(O)c(Sc3nc[nH]n3)c2)cc1
- AC50 [15]: 3.31 µM (active)
- IC50 [16]: > 100 µM (inactive)
- IC50 (Aminopeptidase N): 83.8 µM (active)
- IC50 [17]: > 100 µM (inactive)
- IC50 [18]: 13.8 µM (active)

Second part, led by results:

- EC50 [9]: 11.6 µM (not active)
- EC50 [10]: 48.1 µM (not active)
- EC50 [11]: 15.8 µM (inactive)
SMILES: O=c1cc(CSc2nc3nncc-3c(O)n2-c2ccc(Br)cc2)nc2ccc(Br)cn12
- CC50 [12]: 22.8 µM (active)

- EC50 [13]: > 300 µM (not active)
- EC50 [9]: 19.6 µM (not active)
- EC50 [10]: > 79.4 µM (not active)
- EC50 [11]: > 79.4 µM (inactive)
- EC50 [14]: > 300 µM (not active)
SMILES: COc1cccc(C2C(C(=O)c3cc4cccc(OC)c4o3)=C(O)C(=O)N2c2cc(C)on2)c1OC (configuration not stated)

- IC50 [16]: 22.2 µM (active)
- IC50 [17]: > 100 µM (inactive)
- IC50 [18]: 6.07 µM (active)
SMILES: COc1cc(C(=O)NN2C(=O)/C(=C3\C(=O)Nc4ccccc43)SC2=S)ccc1O
